Columns and labels:
[1] = test system: RWPE cells expressing ESRP1-RAF1; conditions: sorafenib (10 μM) or U0126 (1 or 10 μM), FIG. 4a,b
Protocol: (§1) Cell invasion and proliferation assays. Equal numbers of cells were plated into 96-well plates, and a cell proliferation assay was performed using WST-1 reagent (Roche) following the manufacturer's protocol. For the Boyden chamber Matrigel invasion assay, equal numbers of cells were plated into each Matrigelcoated transwell in the presence of sorafenib or U0126 (Calbiochem) or DMSO (Sigma). Invasion assays were performed as described previously (Kleer, C. G. et al. Proc. Natl. Acad. Sci. USA 100, 11606-11611 (2003); Cao, Q. et al. Oncogene 27, 7274-7284 (2008)).

[2] = test system: RWPE cells expressing SLC45A3-BRAF; conditions: sorafenib (10 μM) or U0126 (1 or 10 μM), FIG. 4a,b
Protocol: as §1

[3] = test system: RWPE cells overexpressing SLC45A3-BRAF; conditions: FIG. 3c
Protocol: as §1

[4] = test system: RWPE cells overexpressing ESRP1-RAF1; assay: Cell proliferation assay (WST-1); assay type: cell-based, human; conditions: RWPE cells overexpressing ESRP1-RAF1, FIG. 3d
From the text: Cell invasion and proliferation assays.

[5] = test system: RWPE cells stably expressing ESRP1-RAF1; conditions: sorafenib or U0126 (10 μM), 14 d, FIG. 4c,d
Protocol: (§2) In vitro soft agar growth. For in vitro growth in soft agar, 2 ml of 0.6% SeaPlaque GTG Agarose (Cambrex) dissolved in complete keratinocyte supplement-free medium (Invitrogen) was poured into six-well dishes. After polymerization, a second layer containing 2 ml of 0.4% agar in complete keratinocyte supplement-free medium, and RWPE cells stably expressing SLC45A3-BRAF or ESRP1-RAF 1 (1×10^4 cells per well) were poured on top. The next day, cells were treated with sorafenib or U0126 (10 μM) in 1 ml of supplement-free keratinocyte medium. Soft-agar assay plates were incubated for 14 d at 37° C. MEK inhibitor (U0126) or sorafenib was changed once a week. Each experimental condition was done in triplicate. On day 14, colonies larger than 40 μm in diameter were counted.

[6] = test system: RWPE cells stably expressing SLC45A3-BRAF; conditions: sorafenib or U0126 (10 μM), 14 d, FIG. 4c,d
Protocol: as §2

[7] = test system: MEK and ERK phosphorylation in RWPE cells expressing ESRP1-RAF1; conditions: U0126 (10 μM) for 2 h, FIG. 4e
Protocol: (§3) MEK-ERK signaling pathway analysis. Stable pooled populations of RWPE cells expressing SLC45A3-BRAF or […] were maintained in supplement-free medium without supplements for 2 h. For MEK inhibitor treatments, U0126 (10 μM) was added in the supplement-free keratinocyte medium for 2 h. MEK and ERK activation was assessed by western blot analysis with antibodies to phospho-MEK or ERK and total MEK or ERK antibodies (Cell Signaling Technologies).

[8] = test system: MEK and ERK phosphorylation in RWPE cells expressing SLC45A3-BRAF; conditions: U0126 (10 μM) for 2 h, FIG. 4e
Protocol: as §3

[9] = test system: MEK½ and ERK½ phosphorylation in BRAFV600E mutation-positive melanoma cell line SK-MEL-94; conditions: SK-MEL-94 control cell line
Protocol: as §3

[10] = test system: DUSP6 or SPRY2 mRNA expression in RWPE cells expressing ESRP1-RAF1; conditions: U0126, 10 mM, 2 hours, Keratinocyte-supplement free media, FIG. 11
Protocol: as §3
(§4) Real Time PCR validation. Quantitative PCR (QPCR) was performed using Power SYBR Green Mastermix (Applied Biosystems) on an Applied Biosystems StepOnePlus Real-Time PCR System. All oligonucleotide primers were obtained from Integrated DNA Technologies and are listed below. The GAPDH primer was used as a control. All assays were performed and repeated twice and results were plotted as average fold change relative to GAPDH.

[11] = test system: DUSP6 or SPRY2 mRNA expression in RWPE cells expressing SLC45A3-BRAF; conditions: U0126, 10 mM, 2 hours, Keratinocyte-supplement free media, FIG. 11
Protocol: as §3, §4

BRAFV600E mutation = BRAFV600E mutation (Homo sapiens, UniProt P15056, V600E); conditions: Sala et al. 2008; cited from earlier work
Sequence of BRAFV600E mutation (P15056 whole entry V600E): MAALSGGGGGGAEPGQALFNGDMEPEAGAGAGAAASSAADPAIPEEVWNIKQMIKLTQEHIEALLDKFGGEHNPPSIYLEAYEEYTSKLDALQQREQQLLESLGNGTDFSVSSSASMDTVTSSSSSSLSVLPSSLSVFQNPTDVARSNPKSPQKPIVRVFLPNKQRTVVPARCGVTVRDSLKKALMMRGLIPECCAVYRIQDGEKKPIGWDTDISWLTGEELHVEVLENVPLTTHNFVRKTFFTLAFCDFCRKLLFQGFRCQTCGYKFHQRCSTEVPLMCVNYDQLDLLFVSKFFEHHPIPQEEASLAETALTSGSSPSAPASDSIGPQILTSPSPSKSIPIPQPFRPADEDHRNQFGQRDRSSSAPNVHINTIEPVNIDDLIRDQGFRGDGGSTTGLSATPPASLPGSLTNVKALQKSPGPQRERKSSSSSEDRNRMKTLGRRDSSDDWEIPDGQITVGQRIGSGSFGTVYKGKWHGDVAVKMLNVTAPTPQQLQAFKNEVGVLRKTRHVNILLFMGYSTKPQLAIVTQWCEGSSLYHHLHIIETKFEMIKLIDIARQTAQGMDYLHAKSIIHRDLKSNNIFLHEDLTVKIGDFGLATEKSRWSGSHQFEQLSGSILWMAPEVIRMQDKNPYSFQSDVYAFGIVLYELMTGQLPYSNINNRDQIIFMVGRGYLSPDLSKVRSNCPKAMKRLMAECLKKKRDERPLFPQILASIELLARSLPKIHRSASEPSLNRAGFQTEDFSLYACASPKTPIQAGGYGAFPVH

SMILES	fusion-mediated cell invasion, sensitivity to inhibitor [1]	fusion-mediated cell invasion, sensitivity to inhibitor [2]	increased cell proliferation, sensitivity to inhibitor [3]	increased cell proliferation, sensitivity to inhibitor [4]	anchorage-independent colony growth in soft agar, sensitivity to inhibitor [5]	anchorage-independent colony growth in soft agar, sensitivity to inhibitor [6]	MEK and ERK phosphorylation, sensitivity to inhibitor [7]	MEK and ERK phosphorylation, sensitivity to inhibitor [8]	MEK½ and ERK½ phosphorylation [9]	DUSP6 or SPRY2 mRNA expression [10]	DUSP6 or SPRY2 mRNA expression [11]	selectivity for the BRAFV600E mutation (BRAFV600E mutation)
CNC(=O)c1cc(Oc2ccc(NC(=O)Nc3ccc(Cl)c(C(F)(F)F)c3)cc2)ccn1 [sorafenib, N-(3-trifluoromethyl-4-chlorophenyl)-N′-(4-(2-methylcarbamoylpyridin-4-yl)oxyphenyl)urea]	sensitive	sensitive	sensitive	sensitive	sensitive	sensitive						
N#CC(=C(/N)Sc1ccccc1N)/C(C#N)=C(\N)Sc1ccccc1N [U0126]	sensitive	sensitive			sensitive	sensitive	sensitive	sensitive	decreased	significantly decreases	significantly decreases	
CC(C)S(=O)(=O)Nc1ccc(F)c(C(=O)c2c[nH]c3ncc(-c4cccnc4)cc23)c1F [PLX-4032]												highly selective
